# Test results as given in paper PMC11543753, “The Ortholog Receptor Or67d in Drosophila Bipectinata is able to Detect Two Different Pheromones” (Journal of Chemical Ecology, 2024).
# Legend:
# [1] = tested on: T1, DbipOr67d (Drosophila bipectinata); assay: single sensillum recording, spike rate of at1 neurons; type: cell-based; conditions: agonist; odor 10^-3 (v/v) in dichloromethane, 0.5 s puff; D. melanogaster at1 neurons expressing DbipOr67d; also tested in wild-type D. bipectinata at1
# T1 construct: with Odorant receptor coreceptor (Drosophila melanogaster)
# D. melanogaster Or67d = biological target: T2, D. melanogaster Or67d (Drosophila melanogaster, UniProt Q9VT92); assay: as above; type: cell-based; conditions: agonist; odor 10^-3 (v/v) in dichloromethane, 0.5 s puff; native at1 neurons of wild-type CS flies
# T2 construct: native receptor in at1 trichoid sensillum neurons of wild-type flies; with Odorant receptor coreceptor
# T2 sequence (Q9VT92 1-391): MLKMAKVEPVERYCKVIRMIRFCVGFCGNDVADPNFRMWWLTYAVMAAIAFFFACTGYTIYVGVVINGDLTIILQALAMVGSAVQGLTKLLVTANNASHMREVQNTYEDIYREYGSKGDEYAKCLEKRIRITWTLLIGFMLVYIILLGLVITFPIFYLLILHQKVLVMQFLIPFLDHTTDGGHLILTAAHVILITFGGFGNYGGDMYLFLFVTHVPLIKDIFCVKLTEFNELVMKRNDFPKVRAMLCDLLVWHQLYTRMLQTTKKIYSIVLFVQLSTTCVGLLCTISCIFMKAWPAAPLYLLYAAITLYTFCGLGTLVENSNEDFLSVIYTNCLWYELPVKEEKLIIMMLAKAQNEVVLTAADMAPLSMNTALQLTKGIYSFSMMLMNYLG
# T2 sequence (Q9VNB5 1-486 partner): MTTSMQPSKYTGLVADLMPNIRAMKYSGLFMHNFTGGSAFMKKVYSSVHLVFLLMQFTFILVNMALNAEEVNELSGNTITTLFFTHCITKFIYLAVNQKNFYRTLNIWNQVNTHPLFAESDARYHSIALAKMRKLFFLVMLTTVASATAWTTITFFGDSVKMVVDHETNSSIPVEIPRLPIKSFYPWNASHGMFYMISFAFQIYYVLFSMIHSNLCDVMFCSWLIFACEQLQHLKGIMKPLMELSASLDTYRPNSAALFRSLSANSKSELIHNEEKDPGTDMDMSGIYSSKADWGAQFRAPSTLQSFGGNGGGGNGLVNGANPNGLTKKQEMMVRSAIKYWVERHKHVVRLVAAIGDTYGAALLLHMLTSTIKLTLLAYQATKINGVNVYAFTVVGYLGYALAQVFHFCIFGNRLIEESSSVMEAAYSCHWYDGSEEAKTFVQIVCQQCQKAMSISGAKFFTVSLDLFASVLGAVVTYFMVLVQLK
SMILES,"single sensillum recording, spike rate of at1 neurons [1]","single sensillum recording, spike rate of at1 neurons (D. melanogaster Or67d)"
"CCCCCC/C=C\CCCCCCCCCCOC(C)=O [cVA, (Z)-11-octadecen-1-yl acetate]",Drosophila melanogaster OSNs ectopically expressing D.bipOr67d respond to cVA and Z11-20:Ac.,D. melanogaster CS flies exhibited significant responses only to cVA (Fig. 1c)
"CCCCCCCC/C=C\CCCCCCCCCCOC(C)=O [Z11-20:Ac, (Z)-11-eicosen-1-yl acetate]",Drosophila melanogaster OSNs ectopically expressing D.bipOr67d respond to cVA and Z11-20:Ac.,–
